Measured values reported in the Deep4Chem optical property database.
Blank lines part the entries; values can stand above or below the molecule they belong to.

Test: photoluminescence quantum yield (fraction); solvent given as SMILES

photoluminescence quantum yield (in CO): 0.05
photoluminescence quantum yield (in CS(C)=O): 0.02
photoluminescence quantum yield (in O): 0.02
Structure (SMILES): CCCN1/C(=C/C=C(/C=C/c2sc3ccccc3[n+]2CCC)c2ccc([N+](=O)[O-])cc2)Sc2ccccc21

photoluminescence quantum yield (in C1CCOC1): 0.033
photoluminescence quantum yield (in CCCCCC): 0.872
photoluminescence quantum yield (in ClC(Cl)Cl): 0.21
photoluminescence quantum yield (in ClCCl): 0.03
Structure (SMILES): O=C1c2cccc3c(-n4c5ccccc5c5ccccc54)ccc(c23)C(=O)N1C1CCCCC1

photoluminescence quantum yield (in ClCCl): 0.19
Structure (SMILES): COc1ccc(-c2cnc(-c3ccccc3)o2)cc1OC

photoluminescence quantum yield (in C1CCCCC1): 0.79
Structure (SMILES): CCCC1(CCC)c2cc(-c3ccc(-c4ccc(OC)cc4)o3)ccc2-c2ccc(-c3ccc(-c4ccc(OC)cc4)o3)cc21

photoluminescence quantum yield (in C1CCCCC1): 0.58
photoluminescence quantum yield (in C1CCOC1): 0.27
photoluminescence quantum yield (in CC#N): 0.08
Structure (SMILES): Cn1nc(-c2ccccc2)c2nc3cc(Cl)ccc3nc21

photoluminescence quantum yield (in ClCCl): 0.25
Structure (SMILES): C(=C\c1ccc(-c2cccc3ccccc23)s1)/c1cccs1

photoluminescence quantum yield (in C1CCOC1): 0.5
Structure (SMILES): c1cc2ccc3cc4[nH]c(-c5cc6c(cc7ccc8cccc9ccc6c7c89)[nH]5)cc4c4ccc(c1)c2c34

photoluminescence quantum yield (in ClCCl): 0.15
Structure (SMILES): CCOC(=O)c1sc(-c2ccc(-c3cc(-c4ccc(C(C)(C)C)cc4)c(C(=O)OCC)s3)s2)cc1-c1ccc(C(C)(C)C)cc1

photoluminescence quantum yield (in CC#N): 0.8
photoluminescence quantum yield (in ClCCl): 0.82
Structure (SMILES): Cn1c(=O)cc(C(=O)c2ccccc2)c2sc(-c3ccc(C(F)(F)F)cc3)cc21

photoluminescence quantum yield (in C1CCOC1): 0.587
Structure (SMILES): CC(C)(C)c1ccc(-c2c(-c3ccc(N(c4ccccc4)c4ccccc4)cc3)cc(-c3ccc(N(c4ccccc4)c4ccccc4)cc3)c(-c3ccc(C(C)(C)C)cc3)c2-c2ccc(C(C)(C)C)cc2)cc1

photoluminescence quantum yield (in C1CCCCC1): 0.26
Structure (SMILES): CC(C)(C)c1ccc(-c2ccc(C(C)(C)C)cc2)cc1

photoluminescence quantum yield (in ClCCl): 0.85
Structure (SMILES): COc1ccc(C#Cc2c3ccccc3c(C#Cc3ccc(OC)cc3)c3cc4ccccc4cc23)cc1

photoluminescence quantum yield (in C1CCCCC1): 0.85
photoluminescence quantum yield (in CCOC(C)=O): 0.21
Structure (SMILES): CC1=[N+]2C(=C(c3ccc(Br)cc3)c3ccc(C)n3[B-]2(F)F)C=C1c1cc2n(c1)[B-](F)(F)[N+]1=CC=CC1=C2c1c(C)cc(C)cc1C

Structure (SMILES): Cn1cccc1-c1ccc(C#N)cc1
photoluminescence quantum yield (in C1CCOC1): 0.94
photoluminescence quantum yield (in CC#N): 0.51
photoluminescence quantum yield (in CCCCCC): 0.92
photoluminescence quantum yield (in CCCCOCCCC): 1
photoluminescence quantum yield (in CCOCC): 0.98

Structure (SMILES): Nc1nc(/C=C/c2ccc(N(c3ccccc3)c3ccccc3)cc2)cc(/C=C/c2ccc(N(c3ccccc3)c3ccccc3)cc2)n1
photoluminescence quantum yield (in Cc1ccccc1): 0.88
photoluminescence quantum yield (in ClC(Cl)Cl): 0.73

photoluminescence quantum yield (in ClCCl): 0.21
Structure (SMILES): c1csc(-c2ccc3c4ccc(-c5cccs5)cc4n(-c4cccs4)c3c2)c1

Structure (SMILES): O=[N+]([O-])c1ccc(F)cc1C1CC(c2cccc3ccccc23)=NN1c1ccccc1 (stereo not given)
photoluminescence quantum yield (in C1CCCCC1): 0.24
photoluminescence quantum yield (in C1CCOC1): 0.3
photoluminescence quantum yield (in C1COCCO1): 0.46
photoluminescence quantum yield (in CC#N): 0.2
photoluminescence quantum yield (in CC(C)O): 0.19
photoluminescence quantum yield (in CCOC(C)=O): 0.15
photoluminescence quantum yield (in CCOCC): 0.2
photoluminescence quantum yield (in CO): 0.14
photoluminescence quantum yield (in Cc1ccccc1): 0.22
photoluminescence quantum yield (in ClC(Cl)Cl): 0.12
photoluminescence quantum yield (in O): 0.12

photoluminescence quantum yield (in ClCCl): 0.131
Structure (SMILES): Cc1ccc(-c2c3nc(c(-c4ccc(C)cc4)c4ccc([nH]4)c(-c4ccc(OC(=O)C(C)c5ccc(-c6ccccc6)c(F)c5)cc4)c4nc(c(-c5ccc(C)cc5)c5ccc2[nH]5)C=C4)C=C3)cc1 (stereo not given)

photoluminescence quantum yield (in ClC(Cl)Cl): 0.697
Structure (SMILES): CCCCc1c2c(nc3ccccc13)-c1cc3c(cc1CC2)-c1nc2ccccc2c(CCCC)c1CC3

Structure (SMILES): CCN(CC)c1ccc(-c2nc3c(c4c2-c2ccc(C#N)cc2CC4)-c2ccc(C#N)cc2CC3)cc1
photoluminescence quantum yield (in C1CCOC1): 0.74
photoluminescence quantum yield (in CC#N): 0.339
photoluminescence quantum yield (in CCCCCC): 0.209
photoluminescence quantum yield (in CCOC(C)=O): 0.565
photoluminescence quantum yield (in CO): 0.148
photoluminescence quantum yield (in CS(C)=O): 0.47
photoluminescence quantum yield (in Cc1ccccc1): 0.427
photoluminescence quantum yield (in ClCCl): 0.842

photoluminescence quantum yield (in C1CCCCC1): 0.4
photoluminescence quantum yield (in CC#N): 0.42
photoluminescence quantum yield (in CO): 0.34
photoluminescence quantum yield (in ClCCl): 0.57
Structure (SMILES): COc1c2ccccc2c(OC)c2c1c1ccc(C)cc1n2C
